Experimental data: US20230159527A1, “COMPOUNDS AS BCL-2 INHIBITORS” (Fochon Pharmaceuticals, Ltd., priority 2020, published 2023)

system: Toledo cells; test: Cell proliferation assay, Toledo cells (MTS, 72 h); format: cell-based; conditions: Homo sapiens, Toledo cells, MTS, read-out: Toledo IC50
Outline: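 Toledo cells (30000/well, RPMI-1640 with 10% FBS) were preincubated for 4 h. They were then exposed to nine compound concentrations from 10000 to 1.5 nM for 72 h at 37 °C, 5% CO2. MTS was added for 2 h and absorbance read at 490 nm to give IC50.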

| SMILES | IC50 [nM] |
| --- | --- |
| CC(C)c1ccccc1[C@@H]1COCCN1C1CC2(CCN(c3ccc(C(=O)NS(=O)(=O)c4cnc(NC[C@H]5CC[C@](C)(O)CC5)c([N+](=O)[O-])c4)c(Oc4cc5cc[nH]c5nc4OC(F)F)c3)CC2)C1 (single isomer, unassigned) [Example A-126, 2-((6-(difluoromethoxy)-1H-pyrrolo [2,3-b]pyridin-5-yl)oxy)-N-((6-((((1r,4r)-4-hydroxy-4-methylcyclo-hexyl)methyl)amino)-5-nitropyridin-3-yl)sulfonyl)-4-(2-((R or S)-3-(2-isopropylphenyl)morpholino)-7-azaspiro[3.5]nonan-7-yl) benzamide] | 1 |
| CC(C)c1ccccc1[C@@H]1CCCN1C1CC2(CCN(c3ccc(C(=O)NS(=O)(=O)c4cc5c(c([N+](=O)[O-])c4)N[C@@H](C4CCC(O)CC4)CO5)c(Oc4cnc5[nH]cc(F)c5c4)c3)CC2)C1 (single isomer, unassigned) [Example D-40, 2-((3-fluoro-1H-pyrrolo[2,3-b]pyridin-5-yl)oxy)-N-(((S)-3-((1s,4R)-4-hydroxycyclohexyl)-5-nitro-3,4-dihydro-2H-benzo[b][1,4]oxazin-7-yl)sulfonyl)-4-(2-((R or S)-2-(2-isopropylphenyl)pyrrolidin-1-yl)-7-azaspiro[3.5]nonan-7-yl)benzamide] | 1 |
| CC(C)c1ccccc1[C@@H]1CCCN1C1CC2(CCN(c3ccc(C(=O)NS(=O)(=O)c4cc5c(c([N+](=O)[O-])c4)N[C@@H]([C@H]4CC[C@](C)(O)CC4)CO5)c(Oc4cc5cc[nH]c5nc4OCC(F)(F)F)c3)CC2)C1 (single isomer, unassigned) [Example D-58, N-(((S)-3-((1r,4S)-4-hydroxy-4-methylcyclohexyl)-5-nitro-3,4-dihydro-2H-benzo[b][1,4]oxazin-7-yl)sulfonyl)-4-(2-((R or S)-2-(2-isopropylphenyl)pyrrolidin-1-yl)-7-azaspiro[3.5]nonan-7-yl)-2-((6-(2,2,2-trifluoroethoxy)-1H-pyrrolo[2,3-b]pyridin-5-yl)oxy) benzamide] | 1 |
| CC(C)c1ccccc1[C@@H]1CCC(=O)N1C1CC2(CCN(c3ccc(C(=O)NS(=O)(=O)c4cc5c(c([N+](=O)[O-])c4)N[C@@H]([C@H]4CC[C@](C)(O)CC4)CO5)c(Oc4cnc5[nH]cc(F)c5c4)c3)CC2)C1 [Example D-257, 2-((3-fluoro-1H-pyrrolo[2,3-b]pyridin-5-yl)oxy)-N-(((S)-3-((1r,4S)-4-hydroxy-4-methylcyclohexyl)-5-nitro-3,4-dihydro-2H-benzo[b] [1,4]oxazin-7-yl)sulfonyl)-4-(2-((S)-2-(2-isopropylphenyl)-5-oxopyrrolidin-1-yl)-7-azaspiro[3.5]nonan-7-yl)benzamide] | 1 |
| CC(C)c1ccccc1[C@@H]1CCCN1C1CC2(CCN(c3ccc(C(=O)NS(=O)(=O)c4cc5c(c([N+](=O)[O-])c4)N[C@@H]([C@H]4CC[C@](C)(O)CC4)CO5)c(Oc4cc5cc[nH]c5nc4N4CCC4)c3)CC2)C1 (single isomer, unassigned) [Example D-183, 2-((6-(azetidin-1-yl)-1H-pyrrolo [2,3-b]pyridin-5-yl)oxy)-N-(((S)-3-((1r,4S)-4-hydroxy-4-methylcyclohexyl)-5-nitro-3,4-dihydro-2H-benzo[b][1,4]oxazin-7-yl)sulfonyl)-4-(2-((R or S)-2-(2-isopropylphenyl)pyrrolidin-1-yl)-7-azaspiro[3.5]nonan-7-yl)benzamide] | 1 |
| COCCOc1nc2[nH]ccc2cc1Oc1cc(N2CCC3(CC2)CN([C@H]2CCC[C@H]2c2ccccc2C(C)C)C3)ccc1C(=O)NS(=O)(=O)c1ccc(NC[C@H]2CC[C@](C)(O)CC2)c([N+](=O)[O-])c1 (racemic) [Example D-76, N-((4-((((1r,4r)-4-hydroxy-4-methylcyclohexyl)methyl)amino)-3-nitrophenyl)sulfonyl)-4-(2-((1S,2S and 1R,2R)-2-(2-isopropylphenyl)cyclopentyl)-2,7-diazaspiro[3.5]nonan-7-yl)-2-((6-(2-methoxyethoxy)-1H-pyrrolo[2,3-b]pyridin-5-yl)oxy)benzamide] | 1 |
| CSc1nc2[nH]ccc2cc1Oc1cc(N2CCC3(CC2)CC(N2CCC[C@H]2c2ccccc2C(C)C)C3)ccc1C(=O)NS(=O)(=O)c1cc2c(c([N+](=O)[O-])c1)N[C@@H]([C@H]1CC[C@](C)(O)CC1)CO2 (single isomer, unassigned) [Example D-191, N-(((S)-3-((1r,4S)-4-hydroxy-4-methylcyclohexyl)-5-nitro-3,4-dihydro-2H-benzo[b][1,4]oxazin-7-yl)sulfonyl)-4-(2-((R or S)-2-(2-isopropylphenyl)pyrrolidin-1-yl)-7-azaspiro[3.5]nonan-7-yl)-2-((6-(methylthio)-1H-pyrrolo [2,3-b]pyridin-5-yl)oxy)benzamide] | 1 |
| CC(C)c1ccccc1[C@@H]1CCC[C@@H]1N1CC2(CCN(c3ccc(C(=O)NS(=O)(=O)c4cc5c(c([N+](=O)[O-])c4)N[C@@H]([C@H]4CC[C@](C)(O)CC4)CO5)c(Oc4cc5cc[nH]c5nc4OC[C@@H]4COCCO4)c3)CC2)C1 (single isomer, unassigned) [Example D-258, 2-((6-(((S)-1,4-dioxan-2-yl)methoxy)-1H-pyrrolo[2,3-b]pyridin-5-yl)oxy)-N-((S)-3-((1r,4S)-4-hydroxy-4-methylcyclohexyl)-5-nitro-3,4-dihydro-2H-benzo[b][1,4]oxazin-7-yl)sulfonyl)-4-(2-((1S,2S or 1R,2R)-2-(2-isopropylphenyl)cyclopentyl)-2,7-diazaspiro[3.5] nonan-7-yl)benzamide] | 1 |
| CC(C)c1ccccc1[C@@H]1CCC[C@@H]1N1CC2(CCN(c3ccc(C(=O)NS(=O)(=O)c4cnc(NC[C@H]5CC[C@](C)(O)CC5)c([N+](=O)[O-])c4)c(Oc4cc5cc[nH]c5nc4Cl)c3)CC2)C1 (relative stereo) [Example A-159, 2-((6-chloro-1H-pyrrolo[2,3-b]pyridin-5-yl)oxy)-N-((6-((((1r,4r)-4-hydroxy-4-methylcyclohexyl)methyl)amino)-_ 5-nitropyridin-3-yl)sulfonyl)-4-(2-((1S,2S or 1R,2R)-2-(2-isopropylphenyl)cyclo-pentyl)-2,7-diazaspiro[3.5]nonan-7-yl) benzamide] | 1 |
| CC(C)c1ccccc1C1CCCN1C1CC2(CCN(c3ccc(C(=O)NS(=O)(=O)c4cc5c(c([N+](=O)[O-])c4)N[C@@H](C4CCC(F)(F)CC4)CO5)c(Oc4cnc5[nH]cc(F)c5c4)c3)CC2)C1 (single isomer, unassigned) [Example D-47, N-(((S)-3-(4,4-difluorocyclohexyl)-5-nitro-3,4-dihydro-2H-benzo [b][1,4]oxazin-7-yl)sulfonyl)-2-((3-fluoro-1H-pyrrolo[2,3-b]pyridin-5-yl)oxy)-4-(2-((R or S)-2-(2-isopropylphenyl)pyrrolidin-1-yl)-7-azaspiro[3.5]nonan-7-yl)benzamide] | 1 |
| CC(C)c1ccccc1[C@@H]1COCCN1C1CC2(CCN(c3ccc(C(=O)NS(=O)(=O)c4cc5c(c([N+](=O)[O-])c4)N[C@@H]([C@H]4CC[C@](C)(O)CC4)CO5)c(Oc4cnc5[nH]cc(F)c5c4)c3)CC2)C1 (single isomer, unassigned) [Example D-1, 2-((3-fluoro-1H-pyrrolo[2,3-b]pyridin-5-yl)oxy)-N-(((S)-3-((1r,4S)-4-hydroxy-4-methylcyclohexyl)-5-nitro-3,4-dihydro-2H-benzo[b] [1,4]oxazin-7-yl)sulfonyl)-4-(2-((R or S)-3-(2-isopropylphenyl)morpholino)-7-azaspiro[3.5]nonan-7-yl) benzamide] | 1 |

same assay, conditions: Homo sapiens, Toledo, read-out: Toledo IC50 (nM)

| SMILES | IC50 [nM] |
| --- | --- |
| CC(C)c1ccccc1[C@@H]1COCCN1C1CC2(CCN(c3ccc(C(=O)NS(=O)(=O)c4cc5c(c([N+](=O)[O-])c4)N[C@@H]([C@H]4CC[C@](C)(O)CC4)CO5)c(Oc4cnc5[nH]cc(Cl)c5c4)c3)CC2)C1 (single isomer, unassigned) [Example D-2, 2-((3-chloro-1H-pyrrolo[2,3-b]pyridin-5-yl)oxy)-N-(((S)-3-((1r,4S)-4-hydroxy-4-methylcyclohexyl)-5-nitro-3,4-dihydro-2H-benzo[b] [1,4]oxazin-7-yl)sulfonyl)-4-(2-((R or S)-3-(2-isopropylphenyl)morpholino)-7-azaspiro[3.5]nonan-7-yl) benzamide] | 1 |

same assay, conditions: Toledo cells, MTS, read-out: Toledo IC50

| SMILES | IC50 [nM] |
| --- | --- |
| CC(C)c1ccccc1[C@H]1CCCN1C1CC2(CCN(c3ccc(C(=O)NS(=O)(=O)c4cc5c(c([N+](=O)[O-])c4)NC([C@@H]4COCCO4)CO5)c(Oc4cnc5[nH]cc(F)c5c4)c3)CC2)C1 (single isomer, unassigned) [Example D-49b, N-(((R or S)-3-((R)-1,4-dioxan-2-yl)-5-nitro-3,4-dihydro-2H-benzo[b][1,4]oxazin-7-yl)sulfonyl)-2-((3-fluoro-1H-pyrrolo[2,3-b]pyridin-5-yl)oxy)-4-(2-((R or S)-2-(2-isopropylphenyl)pyrrolidin-1-yl)-7-azaspiro[3.5]nonan-7-yl)benzamide] | 1 |
| CC(C)c1ccccc1[C@@H]1CCC[C@@H]1N1CC2(CCN(c3ccc(C(=O)NS(=O)(=O)c4cc5c(c([N+](=O)[O-])c4)N[C@@H]([C@H]4CC[C@](C)(O)CC4)CO5)c(Oc4cnc5[nH]cc(F)c5c4)c3)CC2)C1 (single isomer, unassigned) [Example D-28b, 2-((3-fluoro-1H-pyrrolo[2,3-b]pyridin-5-yl)oxy)-N-(((S)-3-((1r,4S)-4-hydroxy-4-methylcyclohexyl)-5-nitro-3,4-dihydro-2H-benzo[b] [1,4]oxazin-7-yl)sulfonyl)-4-(2-((1S,2S or 1R,2R)-2-(2-isopropylphenyl)cyclopentyl)-2,7-diazaspiro[3.5]nonan-7-yl)benzamide] | 1 |
